Test results reported in US20080171710A1, “The Redox/Fyn/c-Cbl Pathway” (priority 2007, published 2008).
Like-named read-outs stand apart in the source and are kept apart here.

Experiments:
[1] = test system: Erk1/2; assay type: cell-based, rat; details: for Erk1/2 phosphorylation caused by PDGF: co-exposure 24 hr, TH, BMP4, FGF-2 or NT-3 (10 ng/ml); for NT-3-stimulated Erk1/2 phosphorylation: co-exposure to TH, BMP-4 or FGF-2
Description: (§1) Cells were deprived of PDGF-AA for 5 h before re-exposure to PDGF-AA (10 ng/ml) for 1 h for Western blot or 6 h for luciferase assays of pathway activation. Transient transfection was performed using Fugene6 (Roche, Basel, Switzerland ) transfection solution according to the manufacturer's protocol. For the luciferase assay, cells seeded in 12-well plates were transfected with a reporter plasmid SRE-Luc(firefly) or NF-κB-Luc(firefly) (BD-Clontech, Palo Alto, Calif., United States) and an internal control plasmid pRLSV40-LUC. Analyses of luciferase activity were performed according to the protocol of the Dual Luciferase Assay System (Promega, Madison, Wis., United States), which uses an internal control of Renilla luciferase for quantification, and relative light units were measured using a luminometer.
(§2) Anti-phosphorylated Erk monoclonal, anti-Erk monoclonal, anti-TrkC polyclonal anti-Fyn polyclonal, anti-EGFR polyclonal, anti-c-Met polyclonal, anti-phospho-tyrosine monoclonal, and anti-PDGFRα polyclonal antibodies were obtained from Santa Cruz Biotechnology (Santa Cruz, Calif., United States). Anti-c-Cbl monoclonal antibody was obtained from BD PharMingen (San Diego, Calif., United States). Anti-phosphorylated Akt monoclonal and anti-Akt polyclonal antibodies were obtained from Cell Signaling Technology (Beverly, Mass., United States). Anti-phosphorylated PDGPRα polyclonal antibody was obtained from Biosource (Carlsbad, Calif., United States). The cell culture samples were collected and lysed in RAPI buffer, whereas dissected tissue samples were sonicated in RAPI buffer. Samples were resolved on SDS-PAGE gels and transferred to PVDF membranes (PerkinElmer Life Science. Wellesley, Mass., United States), After being blocked in 5% skim milk in PBS containing 0.1% Tween 20, membranes were incubated with a primary antibody, followed by incubation with an HRP-conjugated secondary antibody (Santa Cruz Biotechnology). Membranes were visualized using Western Blotting Luminol Reagent (Santa Cruz Biotechnology). All analyses of signaling pathway components were conducted in the presence of ligand for the receptor pathway under analysis (either PDGF-AA for PDGFRα, NT-3 or TrkC, HGF for c-Met, or EGF for EGFR).

[2] = test system: O-2A/OPCs; experiment: Intracellular ROS / redox state measurement; assay type: cell-based, rat; details: 1 μM Pb or 5 μM paraquat; dyes dihydro-chloromethyl-rosamine or dihydro-calcein-AM
Description: Cells were plated in 96-well microplates and grown to about 60% continence. […] Cells were then washed once with HBSS and growth medium to remove free probe. Then, fresh growth medium was added and a baseline fluorescence reading was taken prior to treatment. For NAC pre-treatment. […] Fluorescence was measured in a Wallac 1420 Victor2 multilabel counter (PerkinElmer) using excitation and emission wavelengths of 485 nm and 535 nm, respectively, at different time courses as indicated in the figures. Results are presented as the value change from baseline by the formula (Ftexp−Ftbase)/Ftbase normalized with the control group, where Ftexp=fluorescence at any given time during the experiment in a give well and Ftbase=baseline fluorescence of the same well.

[3] = test system: PDGFRα; experiment: PDGFRα phosphorylation (Western blot, anti-PDGFRα(pY742)); assay type: cell-based, rat; details: 30 nM MeHg; 1 μM Pb; 5 μM paraquat
From the text: The cells were then collected and lysed for Western blotting. […] Cells were lysed for Western blot analysis using anti-PDGFRα(pY742) antibody. The membranes were de-probed and then re-probed with antibody against total PDGFRα and anti-β-tubulin antibody. […]
as §2

[4] = test system: c-Met; assay type: cell-based, rat; details: for c-Met levels: O-2A/OPCs in HGF, 24 hr exposure
From the text: as §2

[5] = test system: TrkC; assay type: cell-based, rat; details: for levels of TrkC: O-2A/OPCs in NT-3, 24 hr exposure
From the text: as §2

[6] = test system: EGFR; assay type: cell-based, rat; details: MeHg, Pb or paraquat
From the text: as §2

[7] = biological target: T1, Fyn (Rattus norvegicus, UniProt Q62844); assay type: cell-based; details: for effect on MeHg-induced Fyn activation: added 1 h before MeHg
T1 construct: 250 μg of total cell lysates were immunoprecipitated with anti-Fyn antibody; endogenous in cells; host or cells: primary rat O-2A/OPCs
T1 sequence (Q62844 whole entry): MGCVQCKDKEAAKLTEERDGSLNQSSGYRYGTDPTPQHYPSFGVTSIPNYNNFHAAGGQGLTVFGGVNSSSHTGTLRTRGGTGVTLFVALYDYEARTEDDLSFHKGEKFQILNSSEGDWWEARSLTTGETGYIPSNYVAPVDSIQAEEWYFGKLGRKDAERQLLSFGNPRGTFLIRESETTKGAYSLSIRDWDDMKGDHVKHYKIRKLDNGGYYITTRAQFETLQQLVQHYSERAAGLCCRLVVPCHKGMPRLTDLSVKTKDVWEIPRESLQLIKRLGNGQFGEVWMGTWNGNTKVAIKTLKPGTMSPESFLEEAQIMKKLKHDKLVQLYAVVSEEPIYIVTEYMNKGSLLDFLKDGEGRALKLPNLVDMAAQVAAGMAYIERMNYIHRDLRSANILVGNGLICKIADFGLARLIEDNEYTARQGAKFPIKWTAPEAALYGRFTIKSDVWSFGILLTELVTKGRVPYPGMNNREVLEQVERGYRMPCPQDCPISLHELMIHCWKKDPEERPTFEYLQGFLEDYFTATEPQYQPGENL
Description: Fyn kinase activity was quantified using the Universal Tyrosine Kinase Assay Kit (Takara, Madison, Wis., United States). O-2A/OPCs exposed to different treatments were solubilized with an equal volume of the extraction buffer provided with the kit for 15 min, and the resulting lysates were centrifuged at 13,000×g for 15 min at 4° C.; 250 μg of total cell lysates were immunoprecipitated with anti-Fyn antibody (Santa Cruz Biotechnology). Following immunoprecipitation, Fyn immune complexes were washed four times with extraction buffer, and then Fyn kinase activities of each sample were assayed using the kit according to the manufacturer's instructions.

[8] = test system: c-Cbl; assay type: cell-based, rat; details: for effect on MeHg-induced c-Cbl phosphorylation: added 1 h before MeHg
Description: For the co-immunoprecipitation assay, anti-c-Cbl monoclonal antibody (BD PharMingen) or anti-PDGFRα polyclonal antibody (Santa Cruz Biotechnology) was added to the pre-cleared cell lysates (250 μg of total protein), and the mixtures were gently rocked for 2 h at 4° C. A total of 30 μl of protein A/G agarose was then added to the mixture followed by rotating at 4° C. overnight. The protein A/G agarose was then spun down and washed thoroughly three times. The precipitates were resolved on an 8% SDS-PAGE gel and then were subjected to Western blot analysis using an anti-p-Tyr (for c-Cbl phosphorylation assay) or ubiquitin (for PDGFR ubiquitylation assay) antibody (Santa Cruz Biotechnology).

[9] = test system: O-2A/OPCs; experiment: Cell death of O-2A/OPCs on exposure; assay type: cell-based, rat
Description: To generate sufficient numbers of cells for biochemical analysis, cells, were expanded through one to two passages in PDGF+FGF-2 before replating in the presence of PDGF alone. When cells achieved approximately 50% confluence, MeHg, Pb, or paraquat was added to their medium at concentrations indicated. Doses for the toxicants were chosen on the basis of dose-response curves to identify sub-lethal exposure levels, as a reflection of blood and brain toxicant levels of these compounds and, where applicable, on the basis of previous reports. All toxicant concentrations examined were confirmed to cause death of less than 5% of cells over the time course of the experiment.

[10] = test system: PDGFRα; assay type: cell-based, rat; details: for absolute levels of PDGFRα: O-2A/OPCs in PDGF, 24 hr exposure; for effect on MeHg-induced reductions in levels of PDGFRα: together with MeHg; for effect on Pb- and paraquat-induced reductions in levels of PDGFRα: together with Pb (1 μM) or paraquat (5 μM)
[11] = test system: SRE-luciferase reporter; experiment: SRE-luciferase reporter assay; assay type: cell-based, rat; details: PDGF plus TH or BMP-4 (10 ng/ml), 24 hr
Description: as §1

[12] = test system: Fyn; assay type: cell-based, rat; details: exposure to Aβ (5-20 μM)
[13] = test system: O-2A/OPCs; experiment: In vitro BrdU incorporation assay; assay type: cell-based, rat; details: with TMX, 2 days
Description: Cell proliferation was assessed by bromodeoxyuridine (BrdU) incorporation and by using the mouse anti-BrdU mAb IgGl (1:100; Sigma) to label dividing cells. Stained cells on cover slips were rinsed two times in 1×PBS, counterstained with 4′6-diamidino-2-phenylindole (DAPI; Molecular Probes, Eugene, Oreg., United States) and mounted on glass slides with Fluoromount (Molecular Probes). Staining against surface proteins was performed on cultures of living cells or on cells fixed with 2% paraformaldehyde. Staining with intracellular antibodies was performed by permeabilizing cells with ice-cold methanol for 4 min or by using 0.5% Triton for 15 mm on 2% parafomaldhyde-fixed cells. Antibody binding was detected with appropriate fluorescent dye-conjugated secondary antibodies at 10 μg/ml (Southern Biotech, Birmingham, Ala., United States) or Alexa Fluor-coupled antibodies at a concentration of 1 μg/ml (Molecular Probes), applied for 20 min. Anti-BrdU monoclonal antibody was obtained from Sigma.

[14] = 30 nM MeHg, 1 μM Pb, 5 μM paraquat
[15] = O-2A/OPCs induced to divide by PDGF, 3-4 hr exposure
[16] = added 1 h before Pb or paraquat
[17] = NAC 1 mM, PP1 100 nM or ICI 182,780 200 nM with TMX

## C[n+]1ccc(-c2cc[n+](C)cc2)cc1 [paraquat]
[1]; 30 nM MeHg 24 h, 1 μM Pb, 5 μM paraquat
  PDGF-induced Erk1/2 phosphorylation after toxicant exposure: reduced levels of Erk1/2 phosphorylation
[2]
  cells more oxidized (intracellular redox state): approximately 20%
[3]
  phosphorylation of PDGFRα after toxicant exposure: reduced
[4]; MeHg, Pb or paraquat
  levels of c-Met after toxicant exposure: also reduced
[5]; MeHg, Pb or paraquat
  levels of TrkC after toxicant exposure: neither Pb or paraquat caused a reduction
[6]
  levels of EGFR after toxicant exposure: also reduced
[7]; [14]
  Fyn activation after toxicant exposure: activation of Fyn
[8]; [14]
  c-Cbl phosphorylation after toxicant exposure: increased phosphorylation of c-Cbl
[9]; MeHg at lower concentrations (not above 50 nM), 1 μM Pb, 5 μM paraquat
  cell death at the concentrations used: did not cause cell death
[10]; MeHg 30 nM, 1 μM Pb, 5 μM paraquat
  total levels of PDGFRα after toxicant exposure: reduced

## CC(C)(C)n1nc(-c2ccc(Cl)cc2)c2c(N)ncnc21 [PP2]
[7]
  effect on MeHg-induced Fyn activation: blocked
[8]
  effect on MeHg-induced c-Cbl phosphorylation: blocked

## bone morphogenetic protein-4 [BMP-4]
[1]
  Erk1/2 phosphorylation caused by PDGF: reduce
  NT-3-stimulated Erk1/2 phosphorylation: not affected
[4]
  c-Met levels: decreases
[5]
  levels of TrkC: unaffected
[7]; differentiation inducers TH and BMP
  fyn activation: activated
[11]
  SRE-reporter gene expression: greatly reduces
[8]; [15]
  c-Cbl phosphorylation: increased phosphorylation
[10]
  absolute levels of PDGFRα: reductions

## C[C@@H]1C[C@@H]([C@H](O)CC2CC(=O)NC(=O)C2)C(=O)[C@@H](C)C1 [cycloheximide]
[10]; cycloheximide 1 μg/ml
  levels of PDGFRα on inhibition of protein synthesis: reductions

## CN(C)CCCn1cc(C2=C(c3c[nH]c4ccccc34)C(=O)NC2=O)c2ccccc21 [BIM-1, bisindoleylmaleimide I]
[7]
  effect on MeHg-induced Fyn activation: did not prevent
[7]; [16]
  effect on Pb- and paraquat-induced Fyn activation: did not prevent
[8]
  effect on MeHg-induced c-Cbl phosphorylation: did not prevent
[8]; [16]
  effect on Pb- and paraquat-induced c-Cbl phosphorylation: did not prevent
[10]
  effect on MeHg-induced reductions in levels of PDGFRα: did not protect
  effect on Pb- and paraquat-induced reductions in levels of PDGFRα: did not protect

## Aβ(1-42): amino acids 1-42 of amyloid beta protein
[1]; exposure to Aβ(1-42)
  Erk1/2 phosphorylation induced by NT-3: had no effect
  PDGF-mediated induction of Erk1/2 phosphorylation: inhibited
[8]; exposure to Aβ (5-20 μM)
  c-Cbl phosphorylation: phosphorylated
[9]; 5-10 μM Aβ(1-42), 48 hrs
  cell death: little cell death
[9]; O-2A/OPCs
  concentration inducing progenitor cell death: 20 µM
[10]; exposure to Aβ
  levels of PDGFRα: reduced
[12]
  Fyn phosphorylation: phosphorylated

## C[C@]12CC[C@@H]3c4ccc(O)cc4C[C@@H](CCCCCCCCC[S+]([O-])CCCC(F)(F)C(F)(F)F)[C@H]3[C@@H]1CC[C@@H]2O (some centres unmarked) [ICI 182780]
[7]; [17]
  effect on TMX-induced activation of Fyn: prevented
[8]; [17]
  effect on TMX-induced activation of c-Cbl: prevented
[10]; [17]
  effect on TMX-induced reductions in levels of PDGFRα: rescued
[13]
  effect on TMX effect on cell proliferation: blocked

## fibroblast growth factor-2 [FGF-2]
[1]
  Erk1/2 phosphorylation caused by PDGF: enhances signaling
  NT-3-stimulated Erk1/2 phosphorylation: not affected
[4]
  c-Met levels: increased
[5]
  levels of TrkC: unaffected
[8]; [15]
  c-Cbl phosphorylation: caused a reduction
[10]; FGF-2 10 ng/ml and PDGF, 24 hr
  levels of PDGFRα in the presence of actinomycin D: still show increased levels
[10]
  absolute levels of PDGFRα: increase

## O=C1N[C@H](C(=O)O)CS1 [proeysteinc, procysteine]
[10]
  effect on Pb- and paraquat-induced reductions in levels of PDGFRα: protected

## N[C@@H](Cc1cc(I)c(Oc2ccc(O)c(I)c2)c(I)c1)C(=O)O [TH, thyroid hormone, reference compound]
[1]
  Erk1/2 phosphorylation caused by PDGF: reduce
  NT-3-stimulated Erk1/2 phosphorylation: not affected
[11]
  SRE-reporter gene expression: greatly reduces
[10]
  absolute levels of PDGFRα: reductions

B1: neurotrophin-3 (protein, UniProt P20783 139-257, looked up)
Neurotrophin-3: YAEHKSHRGEYSVCDSESLWVTDKSSAIDIRGHQVTVLGEIKTGNSPVKQYFYETRCKEARPVKNGCRGIDDKHWNSQCKTSQTYVRALTSENNKLVGWRWIRIDTSCVCALSRKIGRT
notes: signaling molecule that enhances self-renewal
[1]
  Erk1/2 phosphorylation caused by PDGF: enhances signaling
[4]
  c-Met levels: increased
[5]
  levels of TrkC: unaffected
[8]; [15]
  c-Cbl phosphorylation: caused a reduction
[10]
  absolute levels of PDGFRα: increase

B2: scrambled (Scr) RNAi: scrambled negative control for c-Cbl RNAi, SEQ ID NO: 7 and 8 (nucleic acid)
chain 1: TTTAAACCCGGCCCTTTGGTTCAAGAGACCAAAGGGCCGGGTTTAAATTTTTT
chain 2: AATTAAAAAATTTAAACCCGGCCCTTTGGTCTCTTGAACCAAAGGGCCGGGTTTAAAGGCC
[10]
  effect on MeHg-induced reductions in levels of PDGFRα: had no effect
